Laboratory results from patent US9783585B2, “Compositions and methods for increasing the expression and signalling of proteins on cell surfaces” (JOHNS HOPKINS UNIVERSITY, priority 2013, dated 2017).

Experiments:
mOREG = molecular target: T1, mOREG (Mus musculus, UniProt Q920P2); test: Luciferase reporter assay (CRE Firefly:Renilla), mOREG constructs; type: cell-based; conditions: Rho-mOREG, Lucy-mOREG and Lucy-Rho-mOREG, no RTP1S, eugenol 100-300 μM, P≦0.05, 300 μM vs 0 μM
T1 construct: The mOR-EG full-length construct, containing N-terminal Flag/Rho tags; expressed in transfected cells; host or cells: HEK293T
T1 sequence (Q920P2 1-313): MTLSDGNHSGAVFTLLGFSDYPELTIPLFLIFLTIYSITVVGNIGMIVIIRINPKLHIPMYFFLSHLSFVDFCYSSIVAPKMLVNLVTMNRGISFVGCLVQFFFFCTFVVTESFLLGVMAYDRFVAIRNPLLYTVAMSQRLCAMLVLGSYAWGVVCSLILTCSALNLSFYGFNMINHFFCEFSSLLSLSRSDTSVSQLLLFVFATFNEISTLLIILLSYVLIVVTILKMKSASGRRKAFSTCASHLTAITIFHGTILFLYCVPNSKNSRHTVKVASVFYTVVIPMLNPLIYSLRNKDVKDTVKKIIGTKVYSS
Protocol: (§1) Luciferase Assay. The luciferase assay was performed as previously described. Briefly, ORs were transfected into HEK293T cells along with constructs encoding for CREB-dependent luciferase (Firefly) and a constitutively expressed luciferase (Renilla). OR activation leads to a rise in cAMP which drives an increase in Firefly luciferase expression. Firefly activity is normalized to the activity of the Renilla luciferase to control for variation in cell number and transfection efficiency. Data were collected using a FLUOstar Omega automated platereader (BMG LabTech, Cary, N.C.). For some experiments, RTP1S was also transfected.
Statistical Analysis. One-way ANOVA analysis followed by the Student-Newman Keuls test was performed on the luciferase reporter assay to compare the doses of isovaleric acid (0.1-5 mM) or eugenol (100-300 μM) to the non-treated control (0 μM). As each condition was performed in triplicate, the analyses were done with an n=3, and P values≦0.05 were deemed significant. One-way ANOVE followed by Student-Newman Keuls was also used to analyze the surface expression data in FIG. 7. […]
As mOREG is one of the ORs that reach the cell surface under every condition tested, we expressed the OR with and without the Lucy and Rho tags and assessed its response to eugenol.

Olfr691 = molecular target: T2, Olfr691 (Mus musculus, UniProt Q8VGW5); test: Luciferase reporter assay (CRE Firefly:Renilla), Olfr691 constructs; type: cell-based; conditions: 0.1-5 mM isovaleric acid
T2 construct: The other full-length ORs were amplified using primers which added appropriate restriction sites; expressed in transfected cells; host or cells: HEK293T
T2 sequence (Q8VGW5 1-322): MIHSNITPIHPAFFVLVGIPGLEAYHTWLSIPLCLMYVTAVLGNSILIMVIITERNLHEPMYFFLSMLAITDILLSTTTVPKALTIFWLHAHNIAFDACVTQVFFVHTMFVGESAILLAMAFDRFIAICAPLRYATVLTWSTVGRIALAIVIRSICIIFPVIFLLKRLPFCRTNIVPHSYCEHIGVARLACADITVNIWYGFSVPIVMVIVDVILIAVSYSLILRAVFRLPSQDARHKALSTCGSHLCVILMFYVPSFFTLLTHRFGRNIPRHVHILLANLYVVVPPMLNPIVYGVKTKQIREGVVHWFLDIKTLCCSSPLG
Protocol: as §1
Statistical Analysis. One-way ANOVA analysis followed by the Student-Newman Keuls test was performed on the luciferase reporter assay to compare the doses of isovaleric acid (0.1-5 mM) or eugenol (100-300 μM) to the non-treated control (0 μM). As each condition was performed in triplicate, the analyses were done with an n=3, and P values≦0.05 were deemed significant. One-way ANOVE followed by Student-Newman Keuls was also used to analyze the surface expression data in FIG. 7. A Student T-Test was performed on the ELISA to assess the significance of the increased protein expression (Control construct vs. Lucy construct for each OR, n=4 for each condition). P values≦0.05 were deemed significant. In both the luciferase reporter assay and the ELISA, the error bars represent the SEM.
To determine whether Lucy-tagged ORs expressed on the cell surface can still respond to their ligands in the absence of RTP1S, and to ensure that the Lucy tag is not altering ligand binding or detection, we assayed for a functional ligand response using a luciferase reporter assay. In this assay, OR-ligand binding leads to an increase in cAMP which drives the expression of a CRE luciferase. An increase in the Firefly (CRE-dependent luciferase): Renilla (constitutively activated luciferase) ratio indicates OR activation. Previously, it was determined that Olfr691 responds to isovaleric acid. […]

SMILES | OR activation (Firefly:Renilla ratio) (mOREG) | OR activation (Firefly:Renilla ratio) (Olfr691; Lucy-Rho-Olfr691 with and without RTP, P<0.007 vs 0 mM) | OR activation (Firefly:Renilla ratio) (Olfr691; Rho-Olfr691 co-expressed with RTP1S, P≦0.002 vs 0 mM) | OR activation (Firefly:Renilla ratio) (Olfr691; Rho-Olfr691 without RTP1S)
C=CCc1ccc(O)c(OC)c1 [eugenol] | dose-dependent activation | – | – | –
CC(C)CC(=O)O [isovaleric acid] | – | dose-dependent manner | dose-dependent increase | not significantly activated at any concentration
